Reference: ChEMBL document CHEMBL1201862, “PubChem BioAssay data set” (2004)
The source made the active and inactive calls.

Tests used:
[1] = molecular target: T1, Polyadenylate-binding protein 1 (Homo sapiens, UniProt P11940); assay: MLLE binding blockers, Cy5 peptide tracer – biochemical, fluorescence polarization, Cy5-PAM2 peptide, secondary, miRNA deadenylation inhibitor project, dose response (AID 602260); assay type: functional; details: read-out: IC50_Mean
[2] = molecular target: T1, Polyadenylate-binding protein 1; assay: MLLE domain peptide-binding blockers, IC50 – biochemical, fluorescence polarization, FITC-PAM2 peptide, dose response (AID 602259); assay type: functional; details: read-out: IC50_Mean
[3] = viability of PTEN-deleted HCT116 cells – cell-based, HCT116 PTEN knockout, dose response (AID 1047); assay type: functional;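 further: HCT116 colon tumor cells with PTEN knocked out; cells exposed to compound for 60 hours before readout; potency for loss of cell viability measured by luminescence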
[4] = viability of HCT116 lacking mutant beta-catenin – cell-based, human colon tumor, dose response (AID 1045); assay type: functional;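 further: HCT116 colon tumor cells with beta catenin knocked out; cells exposed to compound for 60 hours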
[5] = A549 cell cytotoxicity, dose response, cytotoxicity control, plate reader, cherry-pick, antagonist series (AID 743412); assay type: functional, cell-based
[6] = molecular target: Induced myeloid leukemia cell differentiation protein Mcl-1 (Homo sapiens, UniProt Q07820); assay type: functional
[7] = molecular target: T2, Rac GTPase-activating protein 1 (Homo sapiens, UniProt Q9H0H5); assay: blockers of MgcRacGAP-driven Rac1 GTP hydrolysis – biochemical, ADP Hunter fluorescence, primary and confirmatory, confirmation (AID 624330); assay type: functional
T2 sequence (Q9H0H5 whole entry): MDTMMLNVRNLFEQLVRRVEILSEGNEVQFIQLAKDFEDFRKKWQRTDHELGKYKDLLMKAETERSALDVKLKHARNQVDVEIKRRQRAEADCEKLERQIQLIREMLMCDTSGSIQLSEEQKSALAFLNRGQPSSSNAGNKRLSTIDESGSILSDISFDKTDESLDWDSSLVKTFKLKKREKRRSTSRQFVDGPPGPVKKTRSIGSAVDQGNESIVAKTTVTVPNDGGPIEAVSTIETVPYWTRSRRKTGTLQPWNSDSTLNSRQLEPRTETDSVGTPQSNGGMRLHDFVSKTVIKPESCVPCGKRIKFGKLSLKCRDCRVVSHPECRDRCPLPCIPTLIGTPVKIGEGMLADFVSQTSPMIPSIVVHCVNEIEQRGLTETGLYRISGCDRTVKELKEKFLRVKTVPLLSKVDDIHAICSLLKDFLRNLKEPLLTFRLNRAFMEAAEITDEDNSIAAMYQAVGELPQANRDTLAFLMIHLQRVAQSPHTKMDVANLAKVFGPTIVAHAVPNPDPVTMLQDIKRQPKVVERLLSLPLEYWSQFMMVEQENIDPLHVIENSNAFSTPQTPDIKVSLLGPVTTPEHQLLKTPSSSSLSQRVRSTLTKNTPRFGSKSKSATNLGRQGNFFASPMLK

[8] = THP-1 cell cytotoxicity, dose response, cytotoxicity control for non-replicating M. tuberculosis project (AID 489025); assay type: functional
cells = assay type: functional
[9] = blockers of HIV-1 envelope-mediated cell-cell fusion – cherry-pick, dose response (AID 652057); assay type: functional, cell-based
[10] = blockers of HIV-1 ZM109 envelope-driven cell-cell fusion – HeLa effector, CEM target cells, luciferase, cherry-pick, dose response (AID 652058); assay type: functional, cell-based;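 further: luciferase signal from HIV-1 Env mediated cell-cell fusion of effector and target cells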
Fatty acid synthase [11] = molecular target: T3, Fatty acid synthase (Homo sapiens, UniProt P49327); assay: inhibition of human FAS-TE enzyme activity – biochemical, endpoint fluorescence intensity, uHTS hits, dose response (AID 624327); assay type: functional;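 further: fluorescence from hydrolysis of an O-methyl fluorescein acyl ester substrate by the enzyme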
Fatty acid synthase [12] = molecular target: T3, Fatty acid synthase; assay: inhibition of human FAS-TE enzyme activity – biochemical, kinetic fluorescence intensity, dose response (AID 624326); assay type: functional;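 further: rate of fluorescence rise from hydrolysis of a fluorogenic O-methyl fluorescein ester substrate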
Protein skinhead-1 = molecular target: T4, Protein skinhead-1 (Caenorhabditis elegans, UniProt P34707); assay type: functional
T4 sequence (P34707 whole entry): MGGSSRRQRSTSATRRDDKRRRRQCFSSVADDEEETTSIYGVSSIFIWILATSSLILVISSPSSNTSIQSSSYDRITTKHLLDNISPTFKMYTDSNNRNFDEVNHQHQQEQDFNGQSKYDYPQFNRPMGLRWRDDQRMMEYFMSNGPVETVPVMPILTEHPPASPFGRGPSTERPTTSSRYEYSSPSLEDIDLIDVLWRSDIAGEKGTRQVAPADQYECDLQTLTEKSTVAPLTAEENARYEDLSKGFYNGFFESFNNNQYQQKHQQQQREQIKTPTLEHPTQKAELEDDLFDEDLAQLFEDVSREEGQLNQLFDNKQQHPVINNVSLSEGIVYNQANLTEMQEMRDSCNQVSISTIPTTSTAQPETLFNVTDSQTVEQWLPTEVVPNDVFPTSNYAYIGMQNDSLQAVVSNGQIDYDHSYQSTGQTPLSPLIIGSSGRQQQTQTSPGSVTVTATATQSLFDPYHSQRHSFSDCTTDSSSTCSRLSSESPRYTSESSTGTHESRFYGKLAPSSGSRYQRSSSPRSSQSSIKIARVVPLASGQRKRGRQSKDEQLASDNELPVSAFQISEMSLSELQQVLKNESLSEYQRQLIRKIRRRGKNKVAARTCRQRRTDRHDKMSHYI

T3 sequence (P49327 whole entry): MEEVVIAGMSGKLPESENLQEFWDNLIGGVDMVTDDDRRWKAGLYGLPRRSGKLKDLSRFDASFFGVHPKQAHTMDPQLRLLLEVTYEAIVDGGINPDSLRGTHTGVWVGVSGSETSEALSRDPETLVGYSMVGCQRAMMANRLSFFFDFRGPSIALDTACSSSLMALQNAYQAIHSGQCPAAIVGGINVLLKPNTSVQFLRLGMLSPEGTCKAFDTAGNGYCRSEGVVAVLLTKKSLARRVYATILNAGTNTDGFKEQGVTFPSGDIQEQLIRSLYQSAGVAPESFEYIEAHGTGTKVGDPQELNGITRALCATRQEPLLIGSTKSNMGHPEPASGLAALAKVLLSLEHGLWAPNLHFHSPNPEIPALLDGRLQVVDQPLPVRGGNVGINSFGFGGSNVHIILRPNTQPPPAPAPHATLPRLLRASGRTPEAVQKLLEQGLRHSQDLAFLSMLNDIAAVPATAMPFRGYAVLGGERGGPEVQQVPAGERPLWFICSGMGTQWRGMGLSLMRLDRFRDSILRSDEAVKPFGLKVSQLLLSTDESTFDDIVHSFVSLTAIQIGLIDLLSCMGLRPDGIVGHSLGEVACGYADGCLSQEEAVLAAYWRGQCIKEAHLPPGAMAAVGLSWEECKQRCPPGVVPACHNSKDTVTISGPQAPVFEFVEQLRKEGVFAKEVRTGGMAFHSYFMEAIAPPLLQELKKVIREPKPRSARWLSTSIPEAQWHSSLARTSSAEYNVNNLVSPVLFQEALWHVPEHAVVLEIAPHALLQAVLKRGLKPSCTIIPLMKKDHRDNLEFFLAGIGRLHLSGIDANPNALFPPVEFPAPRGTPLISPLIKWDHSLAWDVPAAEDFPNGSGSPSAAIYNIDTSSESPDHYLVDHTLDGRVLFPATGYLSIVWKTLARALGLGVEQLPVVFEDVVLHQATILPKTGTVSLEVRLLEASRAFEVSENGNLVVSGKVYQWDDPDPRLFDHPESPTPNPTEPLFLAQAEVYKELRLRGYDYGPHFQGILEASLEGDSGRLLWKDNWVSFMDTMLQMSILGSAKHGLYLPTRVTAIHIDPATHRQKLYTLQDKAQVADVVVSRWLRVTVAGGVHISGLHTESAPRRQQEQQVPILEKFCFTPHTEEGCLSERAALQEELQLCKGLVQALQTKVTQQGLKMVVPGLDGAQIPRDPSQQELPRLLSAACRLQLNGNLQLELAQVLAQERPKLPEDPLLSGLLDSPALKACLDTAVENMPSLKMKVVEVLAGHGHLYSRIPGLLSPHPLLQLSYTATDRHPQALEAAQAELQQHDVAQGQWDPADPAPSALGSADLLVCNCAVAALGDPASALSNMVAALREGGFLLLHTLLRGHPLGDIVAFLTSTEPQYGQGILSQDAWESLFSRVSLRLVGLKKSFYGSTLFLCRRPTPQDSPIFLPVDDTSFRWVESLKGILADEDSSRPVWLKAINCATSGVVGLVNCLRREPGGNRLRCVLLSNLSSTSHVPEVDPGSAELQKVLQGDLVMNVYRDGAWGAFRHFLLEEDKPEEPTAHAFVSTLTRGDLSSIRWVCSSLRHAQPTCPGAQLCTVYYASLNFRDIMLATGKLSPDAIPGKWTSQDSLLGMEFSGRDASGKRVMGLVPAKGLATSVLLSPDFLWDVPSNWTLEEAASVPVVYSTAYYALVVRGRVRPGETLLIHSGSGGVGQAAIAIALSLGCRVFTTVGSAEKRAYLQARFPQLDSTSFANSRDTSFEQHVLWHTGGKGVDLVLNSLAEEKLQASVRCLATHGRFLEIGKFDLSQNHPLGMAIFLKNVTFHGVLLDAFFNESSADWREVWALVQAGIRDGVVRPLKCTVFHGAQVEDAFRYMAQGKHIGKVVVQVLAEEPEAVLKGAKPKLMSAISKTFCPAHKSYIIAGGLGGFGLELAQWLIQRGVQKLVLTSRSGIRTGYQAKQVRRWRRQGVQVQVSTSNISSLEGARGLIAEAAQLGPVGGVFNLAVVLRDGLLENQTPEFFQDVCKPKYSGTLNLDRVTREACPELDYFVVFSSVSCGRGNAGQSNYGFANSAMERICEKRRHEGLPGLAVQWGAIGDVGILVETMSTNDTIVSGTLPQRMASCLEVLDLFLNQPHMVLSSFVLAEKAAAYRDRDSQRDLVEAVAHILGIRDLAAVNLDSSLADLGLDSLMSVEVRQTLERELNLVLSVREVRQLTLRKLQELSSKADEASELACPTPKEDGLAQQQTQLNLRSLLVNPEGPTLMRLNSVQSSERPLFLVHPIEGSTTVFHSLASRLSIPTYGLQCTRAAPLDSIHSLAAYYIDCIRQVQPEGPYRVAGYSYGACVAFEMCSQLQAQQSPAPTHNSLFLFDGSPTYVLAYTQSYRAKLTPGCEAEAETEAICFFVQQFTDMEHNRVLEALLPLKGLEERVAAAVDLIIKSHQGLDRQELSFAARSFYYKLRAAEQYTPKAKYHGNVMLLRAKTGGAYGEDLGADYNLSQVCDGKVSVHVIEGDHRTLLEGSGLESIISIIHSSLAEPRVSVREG
Induced myeloid leukemia cell differentiation protein Mcl-1, sequence (Q07820 whole entry): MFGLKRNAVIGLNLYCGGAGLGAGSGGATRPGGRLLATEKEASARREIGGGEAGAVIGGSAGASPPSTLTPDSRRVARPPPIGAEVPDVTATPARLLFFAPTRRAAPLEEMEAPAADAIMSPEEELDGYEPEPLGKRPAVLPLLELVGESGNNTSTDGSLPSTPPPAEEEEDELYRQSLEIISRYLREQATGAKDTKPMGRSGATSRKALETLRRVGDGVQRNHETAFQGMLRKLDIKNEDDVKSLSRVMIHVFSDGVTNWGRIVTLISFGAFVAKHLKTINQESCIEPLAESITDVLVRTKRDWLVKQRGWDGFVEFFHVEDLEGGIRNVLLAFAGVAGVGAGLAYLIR
T1 sequence (P11940 whole entry, the tested form may be a part): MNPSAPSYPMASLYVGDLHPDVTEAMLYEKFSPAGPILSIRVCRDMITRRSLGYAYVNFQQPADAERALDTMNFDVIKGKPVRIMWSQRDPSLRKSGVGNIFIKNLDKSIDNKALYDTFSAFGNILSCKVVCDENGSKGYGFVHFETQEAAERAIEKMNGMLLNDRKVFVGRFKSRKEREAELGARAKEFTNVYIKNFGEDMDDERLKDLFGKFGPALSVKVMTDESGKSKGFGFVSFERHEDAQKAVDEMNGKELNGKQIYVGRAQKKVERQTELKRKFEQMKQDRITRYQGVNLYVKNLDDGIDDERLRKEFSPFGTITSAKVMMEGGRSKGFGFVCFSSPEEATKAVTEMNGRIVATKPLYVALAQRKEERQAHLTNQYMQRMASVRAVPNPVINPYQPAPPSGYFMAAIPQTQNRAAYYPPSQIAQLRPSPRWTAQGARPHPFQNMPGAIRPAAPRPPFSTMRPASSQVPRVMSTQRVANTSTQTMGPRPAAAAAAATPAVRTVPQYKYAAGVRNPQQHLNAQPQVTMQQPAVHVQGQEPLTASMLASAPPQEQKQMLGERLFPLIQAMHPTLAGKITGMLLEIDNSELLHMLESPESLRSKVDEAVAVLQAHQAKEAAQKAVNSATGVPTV

Question: Which IC50 [1] does the source give for `COC(=O)[C@@]1(C)[C@H]2C(=O)N(Cc3ccccc3)C(=O)[C@H]2[C@H]2CN=C(SCC(=O)c3ccccc3)N21` here?
Answer: > 66 µM (inactive)

Question: And the IC50 [2]?
Answer: > 66 µM (inactive)

Question: With `COc1ccccc1C(=O)/C=C/c1ccc(N2CCCCC2)c([N+](=O)[O-])c1` as the compound, how does the EC50 [3] read?
Answer: 5.52 µM (active)

Question: And the EC50 [4]?
Answer: 4.48 µM (active)

Question: Which EC50 [3] does the source give for `COC(=O)c1ccc(Oc2nc(C(N)=O)cc(-c3ccccc3)n2)cc1` here?
Answer: 29.9 µM (active)

Question: For `Cc1ccc(S(=O)(=O)N(C)C[C@H]2Oc3cc(Br)ccc3S(=O)(=O)N([C@H](C)CO)C[C@H]2C)cc1`, which AC50 [5] is on record?
Answer: 33.6 µM (active)

Question: For `COc1ccc(-c2nn(CCC(=O)O)cc2/C=C2\SC(N)=NC2=O)cc1OC`, which IC50 [6] is on record?
Answer: 4.63 µM (active)

Question: With `CC(C)OCCCNC(=O)c1sc(=S)n(C)c1N` as the compound, how does the IC50 [1] read?
Answer: > 66 µM (inactive)

Question: And the IC50 [2]?
Answer: > 66 µM (inactive)

Question: With `CCc1nc(Nc2ccc(N3CCN(C(C)=O)CC3)cc2)c2oc3ccccc3c2n1` as the compound, how does the IC50 [6] read?
Answer: 5.67 µM (not active)

Question: What about the IC50 [7] of the same compound?
Answer: 36.8 µM (active)

Question: With `CC1CCCCC1NC(=O)CN1C(=O)c2cccc(N)c2C1=O` (configuration not stated) as the compound, how does the IC50 [1] read?
Answer: > 66 µM (inactive)

Question: And the IC50 [2]?
Answer: 35.5 µM (inactive)

Question: What does the source list for `CCOc1ccccc1C(=O)N1CCN=C1SCc1cccnc1`?
Answer: IC50 [1]: > 66 µM (inactive); IC50 [2]: > 66 µM (inactive)

Question: Which results are given for `Nc1ccc2nc3c(c(Cl)c2c1)CCCC3`?
Answer: CC50 [8]: 2.79 µM (active); IC50 (cells): 13.7 µM (active)

Question: Which results are given for `O=C(NCc1ccccc1)[C@@H]1CCCN1C(=O)[C@@H]1CCCN1C(=O)c1cccc2ccccc12`?
Answer: AC50 [9]: 54.2 µM (active); AC50 [10]: 36 µM (active)

Question: What does the source list for `Cc1ccc(NC(=O)c2cc([N+](=O)[O-])ccc2N2CCOCC2)cc1C`?
Answer: IC50 (Fatty acid synthase [11]): 4.24 µM (active); IC50 (Fatty acid synthase [12]): 2.81 µM (active)

Question: What does the source list for `COCC(C)n1c(SCC(=O)Nc2nccs2)nc2ccccc2c1=O` (configuration not stated)?
Answer: IC50 [1]: > 66 µM (inactive); IC50 [2]: > 66 µM (inactive)

Question: With `COc1ccc(C(C(=O)NC2CCCCC2)N(CC2CCCO2)C(=O)C2COc3ccccc3O2)cc1OC` (configuration not stated) as the compound, how does the EC50 [3] read?
Answer: 12.7 µM (active)

Question: What about the EC50 [4] of the same compound?
Answer: 19.5 µM (active)

Question: For `c1ccc2sc(SCc3ccc(-c4nnco4)cc3)nc2c1`, which CC50 [8] is on record?
Answer: > 40 µM (active)

Question: What about the IC50 (cells) of the same compound?
Answer: 27.4 µM (active)

Question: And the IC50 (Protein skinhead-1)?
Answer: 32.7 µM (active)

Question: For `CN(C(=S)NC(=O)c1ccccc1)c1c(N)n(Cc2ccccc2)c(=O)[nH]c1=O`, which IC50 [1] is on record?
Answer: > 66 µM (inactive)

Question: And the IC50 [2]?
Answer: > 66 µM (inactive)

Question: What does the source list for `CSc1ccccc1NC(=O)Nc1ccc(Cl)cc1`?
Answer: EC50 [3]: 68.5 µM (active); EC50 [4]: 46.5 µM (active)

Question: Which results are given for `CN1CCC(N(C)c2nc(-c3ccc([N+](=O)[O-])cc3)nc3ccccc23)CC1`?
Answer: EC50 [3]: 5.17 µM (active); EC50 [4]: 4.29 µM (active); IC50 [6]: 3.99 µM (active)

Question: With `O=C(OCc1cccc(C(F)(F)F)c1)c1cc([N+](=O)[O-])ccc1N1CCOCC1` as the compound, how does the IC50 (Fatty acid synthase [11]) read?
Answer: 7.84 µM (active)

Question: And the IC50 (Fatty acid synthase [12])?
Answer: 7.24 µM (active)
